The target of data set [1] is T1, Platelet-activating factor acetylhydrolase (Homo sapiens, UniProt Q13093).
T1 sequence (Q13093 whole entry): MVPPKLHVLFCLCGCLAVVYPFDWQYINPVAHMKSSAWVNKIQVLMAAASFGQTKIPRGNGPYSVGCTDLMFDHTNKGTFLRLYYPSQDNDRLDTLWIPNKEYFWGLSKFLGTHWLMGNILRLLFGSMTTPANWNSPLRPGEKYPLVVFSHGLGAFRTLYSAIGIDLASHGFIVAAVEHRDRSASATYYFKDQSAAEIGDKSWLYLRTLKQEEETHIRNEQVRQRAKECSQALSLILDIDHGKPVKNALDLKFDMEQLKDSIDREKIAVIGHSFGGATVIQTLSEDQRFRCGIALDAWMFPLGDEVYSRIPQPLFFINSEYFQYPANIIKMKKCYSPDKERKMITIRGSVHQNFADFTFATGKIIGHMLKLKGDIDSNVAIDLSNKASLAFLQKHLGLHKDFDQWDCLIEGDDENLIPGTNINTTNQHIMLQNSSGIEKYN
Description: Inhibition of recombinant human Lp-PLA2 pre-incubated for 30 mins before PED6 fluorogenic substrate

The nature of data set [2]: Solubility in pH 7.4 PBS by CLND assay.
A short description of data set [3]: Solubility of the compound by quantitative NMR method. In kind it is physicochemical.
A short description of data set [4]: Lipophilicity, log D of the compound by chromatography. It counts as physicochemical.
A short description of data set [5]: Protein binding in rat plasma at 10 uM incubated for 4 hrs by LC/MS-MS based rapid equilibrium dialysis method. It counts as ADME, cell-free. The following applies: read-out: PPB (converted). In general terms: In equilibrium dialysis only unbound substance equilibrates across the membrane.
The nature of data set [6]: Protein binding in dog plasma at 10 uM incubated for 4 hrs by LC/MS-MS based rapid equilibrium dialysis method. In kind it is ADME, cell-free, Canis lupus familiaris. The following applies: read-out: PPB (converted).
The target of data set [7] is Cytochrome P450 3A4 (Homo sapiens, UniProt P08684). Nature of the data set: Inhibition of CYP3A4 (unknown origin) expressed in Escherichia coli co-expressing human NADPH reductase using both 7-benzyloxyquinolone and diethoxyfluorescein substrate in presence of NADPH regenerating system incubated for 10 mins by spectrofluorometry. In kind it is ADME.
Chain of Cytochrome P450 3A4 (P08684 whole entry): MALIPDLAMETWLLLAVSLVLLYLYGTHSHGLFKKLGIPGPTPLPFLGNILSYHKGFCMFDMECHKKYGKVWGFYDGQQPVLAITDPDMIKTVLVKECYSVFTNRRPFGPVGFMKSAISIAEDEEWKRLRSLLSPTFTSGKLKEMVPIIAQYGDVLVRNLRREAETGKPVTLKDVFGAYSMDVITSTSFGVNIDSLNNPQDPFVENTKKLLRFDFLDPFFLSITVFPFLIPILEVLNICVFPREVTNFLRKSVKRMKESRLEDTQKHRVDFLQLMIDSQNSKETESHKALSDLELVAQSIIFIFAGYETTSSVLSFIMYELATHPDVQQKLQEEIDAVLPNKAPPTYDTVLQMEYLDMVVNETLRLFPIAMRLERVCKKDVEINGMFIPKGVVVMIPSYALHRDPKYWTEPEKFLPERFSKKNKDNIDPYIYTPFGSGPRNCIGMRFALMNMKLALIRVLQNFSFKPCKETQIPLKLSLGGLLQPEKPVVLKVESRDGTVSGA
The nature of data set [8]: Permeability at pH 7.4 by PAMPA method. It counts as ADME. The following applies: read-out: permeability.
Data set [9] can be described thus: Intrinsic clearance rat liver microsomes at 30 ug/mL pre-incubated for 7 mins before NADPH addition by LC/MS-MS method. In kind it is ADME. A general note: Liver microsomes are vesicles of endoplasmic reticulum, rich in cytochrome P450 enzymes.
Data set [10] can be described thus: Clearance in Han Wistar rat at 1 mg/kg, iv or 3 mg/kg, po administered as bolus dose by LC/MS-MS method. It counts as ADME, organism-based. To be noted: in vivo.
The nature of data set [11]: Half life in Han Wistar rat at 1 mg/kg, iv or 3 mg/kg, po administered as bolus dose by LC/MS-MS method. In kind it is ADME, organism-based. To be noted: in vivo.
Data set [12] can be described thus: Volume of distribution at steady state in Han Wistar rat at 1 mg/kg, iv or 3 mg/kg, po administered as bolus dose by LC/MS-MS method. In kind it is ADME, organism-based. The following applies: in vivo, read-out: Vdss.
Data set [13] can be described thus: Clearance in Beagle dog at 0.5/1 mg/kg, iv or 0.5 mg/kg, po by LC/MS-MS method. It counts as ADME, organism-based, Canis lupus familiaris. The following applies: in vivo.
The nature of data set [14]: Half life in Beagle dog at 0.5/1 mg/kg, iv or 0.5 mg/kg, po by LC/MS-MS method. In kind it is ADME, organism-based, Canis lupus familiaris. The following applies: in vivo.
Data set [15] can be described thus: Volume of distribution at steady state in Beagle dog at 0.5/1 mg/kg, iv or 0.5 mg/kg, po by LC/MS-MS method. In kind it is ADME, organism-based, Canis lupus familiaris. To be noted: in vivo, read-out: Vdss.
The target of data set [16] is T1, Platelet-activating factor acetylhydrolase. This is another data set of the same source.
Description: Inhibition of recombinant human Lp-PLA2 incubated for 20 mins by Thio-PAF assay
Data set [17] has the same target. The source holds these as a separate data set.
Description: Inhibition of Lp-PLA2 in whole human plasma pre-incubated for 15 mins before 2-thio-PAF substrate addition
Data set [18] is described as follows: Oral bioavailability in Han Wistar rat at 3 mg/kg administered as bolus dose by LC/MS-MS method. It counts as ADME, organism-based. To be noted: in vivo.
Data set [19] in a line: Oral bioavailability in Beagle dog at 0.5 mg/kg by LC/MS-MS method. It counts as ADME, organism-based, Canis lupus familiaris. The following applies: in vivo.
Data set [20] is described as follows: Stability in rat blood assessed as compound remaining level. In kind it is ADME, tissue-based.

In brackets after ≈: the same amount, converted by molar mass.

Broadly, the IC50 is the concentration at which inhibition is half-maximal. For the molecule `CN1CC(=O)N(CCOc2ccccc2)C1=O`, in data set [1], it took 1000 µM to reach half-maximal inhibition (IC50).

`CC1(C)CN(CCOc2ccc(F)cc2)C(=O)N1` displayed an IC50 in data set [1] of 39 µM.

As to `CC1(C)CCC(=O)N(CCOc2ccc(F)cc2)C1`, in data set [1], the IC50 worked out at 10 µM.

The molecule `O=C1NC2(CCCCC2)C(=O)N1CCOc1ccc(F)cc1` showed an IC50 in data set [1] of 14 µM.

Broadly, the kinetic solubility is solubility judged after dilution from a stock solution rather than from solid. What is called solubility is the dissolved amount per volume that the medium holds. A high value points to a readily soluble substance. One may read the chromatographic logD as a lipophilicity value derived from retention on a column. The low end stands for lower lipophilicity, the high end for higher lipophilicity. The half-life is how long it takes for the measured level to halve. The low end stands for fast loss, the high end for slow loss. In [2], `CC1([C@@H]2CC(=O)N(CCOc3ccc(F)c(C#N)c3)C2)CCS(=O)(=O)CC1` came in with a kinetic solubility greater than 509 µM. In [3], the concentration in solution (solubility) was 3500 µM (≈ 1380 µg/mL). The chromatographic logD in data set [4] was found to be 3. In addition, the fraction unbound at 4 h, 10 µM in data set [5] is 0.8; in [6], 0.75. The IC50 in [7] was greater than 50 µM. Further, the Papp in [8] came out at 3.6 ×10⁻⁶ cm/s. The molecule also displayed a CLH in data set [9] of 1.1 mL/min/g. The clearance was 67 mL/min/kg in data set [10] and 11 mL/min/kg in data set [13]. For the same molecule, the half-life was 0.34 h in [11] and 1.3 h in data set [14]. Besides, the Vd in data set [12] was 1.2 L/kg; in data set [15] it was 1.3 L/kg.

For the molecule `C[C@]1(c2ccccc2)CC(=O)N(CCOc2ccc(F)c(C#N)c2)C1`, the IC50 in data set [16] stood at 1 µM.

Consider `CC(C)[C@@]1(C)CC(=O)N(CCOc2ccc(F)c(C#N)c2)C1`, for which the IC50 in data set [17] worked out at 13 µM; in data set [16], 5.4 µM.

In [1], `CN1C(=O)N(CCOc2ccccc2)C(=O)C1(C)C` gave an IC50 of 20 µM.

For `CC(C)[C@]1(C)CC(=O)N(CCOc2ccc(F)c(C#N)c2)C1`, the IC50 in data set [17] is 6.2 µM; in data set [16], 2.3 µM.

`CN1CCC(C)([C@H]2CC(=O)N(CCOc3ccc(F)c(C#N)c3)C2)CC1` yielded a chromatographic logD in data set [4] of 1.7.

`CC1([C@@H]2CC(=O)N(CCOc3ccc(F)c(F)c3)C2)CCS(=O)(=O)CC1` registered a solubility (kinetic) in data set [2] greater than 450 µM. In [4], this molecule yielded a chromatographic logD of 3.4. Also, the fraction unbound at 4 h, 10 µM in data set [5] is 0.7. Moreover, the 50% inhibitory concentration (IC50) in [7] is greater than 50 µM; in [17], 0.1 µM; in data set [1], 0.086 µM. In addition, in data set [8], the Papp is 17 ×10⁻⁶ cm/s.

With `CC1(C)CC(=O)N(CCOc2ccc(F)cc2)C1`, the midpoint of inhibition in data set [1], the IC50, lay at 11 µM.

`CC1([C@H]2CC(=O)N(CCOc3ccc(F)c(C#N)c3)C2)CCS(=O)(=O)CC1`: the chromatographic logD in data set [4] stood at 2.8.

On to `CC1(C)CC(=O)N(CCOc2ccc(F)c(C#N)c2)C1`, for which the IC50 is 15 µM in data set [16] and 3 µM in [1].

Molecule `C[C@@]1(c2ccccc2)CC(=O)N(CCOc2ccc(F)c(C#N)c2)C1` showed an IC50 in [16] of 1.6 µM.

For orientation: bioavailability means the share of a dose that reaches the circulation, judged against a reference dose that is usually intravenous. Lower therefore signals little systemic uptake. For `CN1CCC(C)(C2CC(=O)N(CCOc3ccc(F)c(C#N)c3)C2)CC1.Cl` (racemic), the clearance came to 24 mL/min/kg in data set [10] and 8.6 mL/min/kg in data set [13]. The half-life in data set [11] is 1.8 h; in data set [14] it was 3.2 h. The Vd in data set [12] was determined as 3.2 L/kg; in [15], 2.5 L/kg. The values for the bioavailability in data set [18] and in [19] were 52% and 76%, respectively.

Turning to `CN1CCC(C)(C2CC(=O)N(CCOc3ccc(F)c(C#N)c3)C2)CC1` (racemic), in [2], the solubility (kinetic) was greater than 396 µM. Further, the fraction unbound at 4 h, 10 µM was 0.71 in data set [5] and 0.56 in [6]. Moreover, in data set [7], the IC50 was greater than 50 µM. For the same molecule, in data set [8], the Papp is 21 ×10⁻⁶ cm/s.

`N#Cc1cc(OCCN2CC(c3ccccc3)CC2=O)ccc1F` (racemic) yielded an IC50 in data set [16] of 0.86 µM.

In the case of `CC1(C2CC(=O)N(CCOc3ccc(F)cc3)C2)CCS(=O)(=O)CC1` (racemic), in [4], the chromatographic logD stood at 3.1. For the same molecule, the IC50 is 1.5 µM in data set [17] and 0.76 µM in [1].

Regarding `CC1(C2CC(=O)N(CCOc3ccc(F)c(F)c3)C2)CCS(=O)(=O)CC1` (racemic), in [4], the chromatographic logD was determined as 3.4. Also, in [10], the clearance was 22 mL/min/kg. Also, in [11], the half-life is 0.35 h. Also, the Vd in data set [12] was found to be 0.63 L/kg. This molecule also had a bioavailability in data set [18] of 47%. Besides, the IC50 stood at 0.29 µM in data set [17] and 0.16 µM in data set [1].

In turn, `CC(C)C1CC(=O)N(CCOc2ccc(F)c(C#N)c2)C1` (racemic) displayed an IC50 in data set [16] of 1.9 µM.

In the case of `CC(C)C1(C)CC(=O)N(CCOc2ccc(F)c(C#N)c2)C1` (racemic), the IC50 in data set [16] amounted to 2 µM.

In turn, `CC(=O)N1CCC(C)(C2CC(=O)N(CCOc3ccc(F)c(C#N)c3)C2)CC1` (racemic) came in with a chromatographic logD in data set [4] of 2.9. The IC50 was found to be 0.66 µM in [17] and 0.25 µM in [1].

Regarding `CC1(C2CC(=O)N(CCOc3ccc(F)c(C#N)c3)C2)CCOCC1` (racemic), the chromatographic logD in [4] was determined as 3.7. Besides, the IC50 worked out at 0.26 µM in [17] and 0.16 µM in data set [1].

For the molecule `CC(C)(C)C1CC(=O)N(CCOc2ccc(F)c(C#N)c2)C1` (racemic), the results for the IC50 in data set [17] and in data set [16] were 5.1 µM and 0.98 µM, respectively.

On to `CC1(C2CC(=O)N(CCOc3ccc(F)c(C#N)c3)C2)CCS(=O)(=O)CC1` (racemic), for which the chromatographic logD in data set [4] was found to be 2.8. Besides, the Stability in data set [20] turned out to be 100%.

The molecule `CC1(C2CC(=O)N(CCOc3ccc(F)c(C#N)c3)C2)CCNCC1` (racemic; form 1) registered a chromatographic logD in data set [4] of 1.5.

For orientation: logD means the decadic logarithm of the distribution of all forms, ionised or not, between an organic phase and buffer at a given pH. Low readings indicate a more hydrophilic compound, high ones a more lipophilic compound. On to `CC1(C2CC(=O)N(CCOc3ccc(F)c(C#N)c3)C2)CCNCC1.Cl` (racemic; form 2), for which the kinetic solubility in data set [2] is 242 µM. This molecule also registered a logD in [4] of 1.5. Further, in data set [5], the fraction unbound at 4 h, 10 µM was 0.81. Also, in [7], the IC50 is greater than 50 µM. The Papp in [8] is less than 0.3 ×10⁻⁶ cm/s. This molecule also registered a clearance in data set [10] of 15 mL/min/kg. The half-life in data set [11] was 2.4 h. Moreover, in data set [12], the Vd was determined as 2 L/kg. The bioavailability in [18] was less than 5%.

In [2], `CCN(CC)CCN(Cc1ccc(-c2ccc(C(F)(F)F)cc2)cc1)C(=O)Cn1c(SCc2ccc(F)cc2)nc(=O)c2c1CCC2` [DARAPLADIB] displayed a kinetic solubility of 8 µM (≈ 5.33 µg/mL). Also, the chromatographic logD in data set [4] amounted to 6.3.
